Results as given in ChEMBL document CHEMBL4619777, “A New Class of Dengue and West Nile Virus Protease Inhibitors with Submicromolar Activity in Reporter Gene DENV-2 Protease and Viral Replication Assays” (J Med Chem, 2020).

Tests used:
[1] = target: T1, Genome polyprotein (dengue virus type 2, UniProt P29990); assay: Inhibition of Dengue virus serotype 2 NS2B-NS3 protease expressed in Escherichia coli BL21 lambda (DE3) cells using Abz-Nle-Lys-Arg-Arg-Ser-3-(NO2)Tyr as substrate preincubated for 15 mins followed by substrate addition and measured for 15 mins by FRET assay
[2] = target: Genome polyprotein (dengue virus type 2) (UniProt P29990); assay: Inhibition of Dengue virus serotype 2 NS2B-NS3 protease expressed in Escherichia coli BL21 lambda (DE3) cells at 50 uM using Abz-Nle-Lys-Arg-Arg-Ser-3-(NO2)Tyr as substrate preincubated for 15 mins followed by substrate addition and measured for 15 mins by FRET assay relative to control
[3] = target: Genome polyprotein (West Nile virus) (UniProt P06935); assay: Inhibition of West Nile virus NS2B-NS3 protease expressed in Escherichia coli BL21 lambda (DE3) cells at 50 uM using Abz-Gly-Leu-Lys-Arg-Gly-Gly-3-(NO2)Tyr as substrate preincubated for 15 mins followed by substrate addition measured for 15 mins by fluorimetric analysis relative to control
Genome polyprotein (West Nile virus), sequence (P06935 whole entry): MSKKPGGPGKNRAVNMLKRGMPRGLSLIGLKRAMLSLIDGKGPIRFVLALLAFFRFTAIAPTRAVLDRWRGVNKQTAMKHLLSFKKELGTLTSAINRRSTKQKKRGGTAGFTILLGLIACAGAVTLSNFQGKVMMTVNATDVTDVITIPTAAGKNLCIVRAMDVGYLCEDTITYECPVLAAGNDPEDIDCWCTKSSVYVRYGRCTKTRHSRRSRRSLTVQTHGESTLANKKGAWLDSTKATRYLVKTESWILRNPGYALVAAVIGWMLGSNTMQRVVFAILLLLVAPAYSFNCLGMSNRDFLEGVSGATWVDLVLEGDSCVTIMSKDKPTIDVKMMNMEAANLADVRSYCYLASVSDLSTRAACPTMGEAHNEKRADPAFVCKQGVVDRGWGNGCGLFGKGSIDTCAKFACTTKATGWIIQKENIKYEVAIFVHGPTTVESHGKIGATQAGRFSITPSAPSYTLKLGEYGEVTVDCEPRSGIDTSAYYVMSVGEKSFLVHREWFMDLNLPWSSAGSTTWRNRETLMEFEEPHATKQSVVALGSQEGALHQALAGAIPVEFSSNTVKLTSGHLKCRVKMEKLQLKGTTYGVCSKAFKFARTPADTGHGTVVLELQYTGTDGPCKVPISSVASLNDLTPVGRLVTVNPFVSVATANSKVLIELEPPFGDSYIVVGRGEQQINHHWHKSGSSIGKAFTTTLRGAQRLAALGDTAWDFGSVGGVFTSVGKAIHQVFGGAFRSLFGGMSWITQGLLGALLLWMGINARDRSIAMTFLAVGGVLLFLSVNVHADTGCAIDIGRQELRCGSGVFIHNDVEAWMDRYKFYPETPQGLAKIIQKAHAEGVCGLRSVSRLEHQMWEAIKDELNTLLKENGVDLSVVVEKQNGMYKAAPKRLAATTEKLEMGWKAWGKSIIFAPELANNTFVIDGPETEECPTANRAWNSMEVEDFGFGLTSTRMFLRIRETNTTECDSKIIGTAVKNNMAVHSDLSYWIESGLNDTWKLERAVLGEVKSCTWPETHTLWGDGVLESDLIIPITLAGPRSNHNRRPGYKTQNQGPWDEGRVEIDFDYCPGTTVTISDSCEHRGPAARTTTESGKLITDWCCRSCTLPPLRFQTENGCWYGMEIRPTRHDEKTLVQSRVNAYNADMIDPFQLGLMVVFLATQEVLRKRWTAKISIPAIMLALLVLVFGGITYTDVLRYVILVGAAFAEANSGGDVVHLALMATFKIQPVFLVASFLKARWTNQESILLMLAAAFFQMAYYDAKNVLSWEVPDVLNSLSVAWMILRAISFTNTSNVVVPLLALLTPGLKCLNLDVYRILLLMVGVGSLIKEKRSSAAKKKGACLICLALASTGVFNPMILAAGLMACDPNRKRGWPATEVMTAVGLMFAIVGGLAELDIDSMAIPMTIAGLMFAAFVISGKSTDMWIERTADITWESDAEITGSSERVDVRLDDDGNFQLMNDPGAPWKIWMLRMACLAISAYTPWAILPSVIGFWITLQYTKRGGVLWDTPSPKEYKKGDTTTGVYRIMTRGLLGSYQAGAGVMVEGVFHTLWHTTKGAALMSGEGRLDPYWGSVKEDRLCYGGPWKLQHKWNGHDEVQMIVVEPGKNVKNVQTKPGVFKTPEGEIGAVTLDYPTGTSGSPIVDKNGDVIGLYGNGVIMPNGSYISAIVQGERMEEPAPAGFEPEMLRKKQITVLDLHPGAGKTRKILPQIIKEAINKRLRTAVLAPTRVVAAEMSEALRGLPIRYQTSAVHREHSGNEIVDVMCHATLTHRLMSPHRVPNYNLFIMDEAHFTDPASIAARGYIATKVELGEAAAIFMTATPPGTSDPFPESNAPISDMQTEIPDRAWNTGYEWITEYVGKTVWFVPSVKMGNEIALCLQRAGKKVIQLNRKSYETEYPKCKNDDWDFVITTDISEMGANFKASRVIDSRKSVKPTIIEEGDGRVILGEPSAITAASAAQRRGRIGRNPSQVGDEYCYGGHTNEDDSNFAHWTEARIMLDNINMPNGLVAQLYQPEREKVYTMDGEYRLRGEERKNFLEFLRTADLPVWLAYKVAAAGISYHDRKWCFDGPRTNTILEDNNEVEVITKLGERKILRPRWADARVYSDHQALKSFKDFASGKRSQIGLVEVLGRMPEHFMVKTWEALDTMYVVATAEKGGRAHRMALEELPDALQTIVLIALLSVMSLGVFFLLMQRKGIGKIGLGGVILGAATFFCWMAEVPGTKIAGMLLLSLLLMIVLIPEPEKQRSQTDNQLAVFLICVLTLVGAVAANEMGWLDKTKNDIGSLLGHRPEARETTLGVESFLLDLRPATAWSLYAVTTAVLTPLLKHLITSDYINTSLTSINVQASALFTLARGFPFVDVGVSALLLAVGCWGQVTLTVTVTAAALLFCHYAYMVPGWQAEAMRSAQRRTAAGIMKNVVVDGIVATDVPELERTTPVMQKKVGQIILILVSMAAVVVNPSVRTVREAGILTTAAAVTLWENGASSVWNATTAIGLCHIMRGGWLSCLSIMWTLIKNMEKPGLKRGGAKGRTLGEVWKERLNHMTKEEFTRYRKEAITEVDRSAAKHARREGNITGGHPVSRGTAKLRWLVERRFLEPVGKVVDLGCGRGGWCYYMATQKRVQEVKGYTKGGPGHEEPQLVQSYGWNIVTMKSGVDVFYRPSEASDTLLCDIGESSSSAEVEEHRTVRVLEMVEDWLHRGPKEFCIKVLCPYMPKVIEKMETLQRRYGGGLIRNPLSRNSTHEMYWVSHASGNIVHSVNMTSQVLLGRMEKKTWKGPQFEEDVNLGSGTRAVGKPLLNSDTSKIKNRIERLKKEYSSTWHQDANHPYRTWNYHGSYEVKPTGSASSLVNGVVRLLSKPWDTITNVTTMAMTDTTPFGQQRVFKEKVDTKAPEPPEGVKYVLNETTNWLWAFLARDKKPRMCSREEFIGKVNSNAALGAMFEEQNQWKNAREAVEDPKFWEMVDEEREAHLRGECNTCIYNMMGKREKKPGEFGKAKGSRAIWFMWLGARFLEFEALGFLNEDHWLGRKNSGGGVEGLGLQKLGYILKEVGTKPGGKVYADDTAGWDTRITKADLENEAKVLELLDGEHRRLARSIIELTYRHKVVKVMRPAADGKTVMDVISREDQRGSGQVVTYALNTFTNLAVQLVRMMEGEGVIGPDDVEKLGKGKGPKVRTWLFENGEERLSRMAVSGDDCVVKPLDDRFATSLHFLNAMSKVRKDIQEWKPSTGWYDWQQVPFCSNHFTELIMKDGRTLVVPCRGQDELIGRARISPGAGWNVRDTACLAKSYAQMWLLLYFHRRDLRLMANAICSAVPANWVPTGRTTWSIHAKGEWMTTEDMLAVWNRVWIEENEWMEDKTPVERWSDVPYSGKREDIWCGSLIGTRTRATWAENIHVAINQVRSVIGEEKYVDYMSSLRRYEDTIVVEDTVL

[4] = test system: dengue virus type 2; assay: Antiviral activity against DENV2 infected in human HuH7 cells assessed as reduction in virus titer at 12.5 uM measured after 48 hrs relative to control; type: functional; settings: Huh-7, 48 h
[5] = target: Genome polyprotein (West Nile virus, UniProt P06935); assay: Inhibition of West Nile virus NS2B-NS3 protease expressed in Escherichia coli BL21 lambda (DE3) cells using Abz-Gly-Leu-Lys-Arg-Gly-Gly-3-(NO2)Tyr as substrate preincubated for 15 mins followed by substrate addition measured for 15 mins by fluorimetric analysis
Genome polyprotein (West Nile virus, UniProt P06935), sequence (P06935 1371-1501 limits assumed): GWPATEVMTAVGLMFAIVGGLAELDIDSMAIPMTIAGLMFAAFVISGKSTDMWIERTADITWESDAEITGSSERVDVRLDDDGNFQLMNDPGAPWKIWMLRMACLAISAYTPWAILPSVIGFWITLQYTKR
Genome polyprotein (West Nile virus, UniProt P06935), sequence (P06935 1502-2120 limits assumed): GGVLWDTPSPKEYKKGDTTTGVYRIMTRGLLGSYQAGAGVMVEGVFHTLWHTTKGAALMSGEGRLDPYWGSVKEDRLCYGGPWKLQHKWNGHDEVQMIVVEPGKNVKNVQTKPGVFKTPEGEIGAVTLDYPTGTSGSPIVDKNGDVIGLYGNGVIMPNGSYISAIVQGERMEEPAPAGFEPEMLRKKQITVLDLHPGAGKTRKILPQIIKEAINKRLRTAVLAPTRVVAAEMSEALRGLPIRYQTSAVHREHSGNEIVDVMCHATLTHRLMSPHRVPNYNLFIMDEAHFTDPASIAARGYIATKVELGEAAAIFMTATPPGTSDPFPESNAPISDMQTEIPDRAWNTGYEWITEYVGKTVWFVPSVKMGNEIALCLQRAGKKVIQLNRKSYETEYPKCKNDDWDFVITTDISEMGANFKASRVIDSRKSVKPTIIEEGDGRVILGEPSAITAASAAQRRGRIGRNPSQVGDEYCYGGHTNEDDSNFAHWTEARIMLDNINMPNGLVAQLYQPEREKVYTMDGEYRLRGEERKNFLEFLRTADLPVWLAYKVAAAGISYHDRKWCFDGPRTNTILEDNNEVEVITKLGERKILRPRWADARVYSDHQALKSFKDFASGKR

[6] = Cytotoxicity against human HeLa cells assessed as reduction in cell viability measured after 24 hrs by celltiter-blue assay; type: cell-based
[7] = target: Prothrombin (Homo sapiens, UniProt P00734); assay: Inhibition of thrombin (unknown origin) at 25 uM using Boc-Val-Pro-Arg-AMC as substrate preincubated for 15 mins followed by substrate addition and measured for 15 mins by fluorimetric assay; settings: 0.25 h
[8] = target: Genome polyprotein (dengue virus type 2) (UniProt P29990); assay: Inhibition of Dengue virus serotype 2 NS2B-NS3 protease transfected in human HeLa cells at 12.5 uM measured after 24 hrs by Renilla-luciferase reporter gene assay relative to control; type: cell-based
[9] = test system: Huh-7; assay: Cytotoxicity against human HuH7 cells assessed as reduction in cell viability at 12 uM measured after 48 hrs by celltiter-blue assay; type: cell-based; settings: huh-7, 48 h
[10] = target: T1, Genome polyprotein; assay: Inhibition of Dengue virus serotype 2 NS2B-NS3 protease transfected in human HeLa cells measured after 24 hrs by Renilla-luciferase reporter gene assay; type: cell-based
[11] = target: Trypsin (Homo sapiens, UniProt P07477+P07478+P35030); assay: Inhibition of trypsin (unknown origin) at 50 uM using Boc-Val-Pro-Arg-AMC as substrate preincubated for 15 mins followed by substrate addition and measured for 15 mins by fluorimetric assay relative to control; type: protein assay; settings: 0.25 h, 50 µM
[12] = Permeability of the compound at 200 uM measured after 5 hrs at pH 7.4 by PAMPA; type: ADME; settings: read-out: permeability
[13] = Permeability of the compound assessed as drug level in donor plate at 200 uM measured after 5 hrs at pH 7.4 by PAMPA; type: ADME; settings: pH 7.4, 5 h
[14] = Permeability of the compound assessed as mass retention at 200 uM measured after 5 hrs at pH 7.4 by PAMPA; type: ADME; settings: pH 7.4, 5 h
[15] = Permeability of the compound assessed as drug level in acceptor plate at 200 uM measured after 5 hrs at pH 7.4 by PAMPA; type: ADME; settings: pH 7.4, 5 h

SMILES | IC50 [1] | inhibition [2] | inhibition [3] | inhibition at 12.5 µM [4] | IC50 [5] | CC50 at 24 h [6] | inhibition (INH) [7] | inhibition [8] | Activity [9] | EC50 [10] | inhibition (INH) [11] | Papp at 5 h, 200 µM [12] | Drug uptake [13] | R% [14] | Drug uptake [15] | Drug uptake ([13]; BLD = below limit of detection)
CCCCCC(=O)N[C@H](C(=O)NCc1ccc(CNC(=N)N)cc1)c1ccc(OCc2ccccc2)cc1.O=C(O)C(F)(F)F | 14 µM | 104% | 98.6% | 79.5% | 37 µM | > 50 µM | Not Active | 66.3% | Non-Toxic | 6.3 µM | Not Active |  |  |  |  | 
CCCCCC(=O)N[C@H](C(=O)NCc1ccc(NC(=N)N)nc1)c1ccc(OCc2ccccc2)cc1.O=C(O)C(F)(F)F | 19 µM | 93.9% | 96.8% | 31.5% | 23 µM | > 50 µM | Not Active | 67.7% | Non-Toxic | 5.9 µM | Not Active |  |  |  |  | 
Cn1c(=O)c2c(ncn2C)n(C)c1=O [CAFFEINE] |  |  |  |  |  |  |  |  |  |  |  | 7.7 ×10⁻⁶ cm/s | 159.5 µM | 9.6% | 31.9 µM | 
CCCCCC(=O)N[C@H](C(=O)NCc1cccc(CN)c1)c1ccc(OCc2ccccc2)cc1 | 30 µM | 97.2% | 85.4% |  | 27 µM | > 12.5 µM | Not Active | 71% |  | 4.2 µM | Not Active |  |  |  |  | 
CCCCCCCCCC(=O)N[C@H](C(=O)NCc1ccc(NC(=N)N)cc1)c1ccc(OCc2ccccc2)cc1.O=C(O)C(F)(F)F | 2.3 µM | 99.8% | 102% |  | 5 µM | > 50 µM | Not Active | 65.8% |  | 2.3 µM | Not Active |  |  |  |  | Bld
N=C(N)NCc1ccc(CNC(=O)[C@H](NC(=O)c2ccc(Oc3ccccc3)cc2)c2ccc(OCc3ccc(Cl)c(Cl)c3)cc2)cc1.O=C(O)C(F)(F)F | 2.5 µM | 99.8% | 99.6% |  | 5.5 µM | > 50 µM | Not Active | 36% |  |  | Not Active |  |  |  |  | Bld
CCCCCC(=O)N[C@H](C(=O)NCc1ccc(NC(=N)N)cc1)c1ccc(OCc2c(Cl)cccc2Cl)cc1.O=C(O)C(F)(F)F | 2.9 µM | 97.5% | 101% |  | 6.2 µM | > 50 µM | Not Active | 41.5% |  |  | Not Active |  |  |  |  | Bld
N=C(N)Nc1ccc(CNC(=O)[C@@H](NC(=O)c2ccc(OCc3ccccc3)cc2)c2ccc(OCc3ccccc3)cc2)cc1.O=C(O)C(F)(F)F | 4.4 µM | 106% | 98.7% | 27.4% | 7.1 µM | > 12.5 µM | Not Active | 69.8% | Non-Toxic | 2.1 µM | Not Active |  |  |  |  | Bld
CCCCCC(=O)N[C@H](C(=O)NCc1ccc(NC(=N)N)cc1)c1ccc(OCc2ccc(C(F)(F)F)cc2)cc1.O=C(O)C(F)(F)F | 7.4 µM | 96.3% | 100% | 60.3% | 12 µM | > 50 µM | Not Active | 66% | Non-Toxic | 3 µM | Not Active |  |  |  |  | 
NC(=O)N1c2ccccc2C=Cc2ccccc21 [CARBAMAZEPINE] |  |  |  |  |  |  |  |  |  |  |  | 8.1 ×10⁻⁶ cm/s | 171.6 µM | 2.3% | 35.7 µM | 
CCCCCC(=O)N[C@H](C(=O)NCCCCCCN)c1ccc(OCc2ccccc2)cc1 |  | 18.1% | < 10% |  |  | > 50 µM | Not Active | 45.8% |  | 13 µM | Not Active |  |  |  |  | 
COc1cccc(COc2ccc(C(=O)N[C@H](C(=O)NCc3ccc(NC(=N)N)cc3)c3ccc(OCc4ccccc4)cc3)cc2)c1.O=C(O)C(F)(F)F | 4.7 µM | 98.4% | 102% | 21.9% | 7.4 µM | > 12.5 µM | Not Active | 67.6% | Non-Toxic | 2.9 µM | Not Active |  |  |  |  | Bld
O=C1NC(=O)C(c2ccccc2)(c2ccccc2)N1 [PHENYTOIN] |  |  |  |  |  |  |  |  |  |  |  | 6 ×10⁻⁶ cm/s | 149.6 µM | 17.4% | 23.4 µM | 
CCCCCC(=O)N[C@@H](C(=O)NCc1ccc(NC(=N)N)cc1)c1ccc(OCc2ccc(Cl)c(Cl)c2)cc1.O=C(O)C(F)(F)F | 5.7 µM | 97.3% | 101% |  | 8.3 µM | > 50 µM | Not Active | 51% |  | 16 µM | Not Active |  |  |  |  | 
N=C(N)Nc1ccc(CNC(=O)[C@@H](NC(=O)Cc2ccc(-c3ccccc3)cc2)c2ccc(OCc3ccccc3)cc2)cc1.O=C(O)C(F)(F)F | 1.3 µM | 101% | 99.3% |  | 1.8 µM | > 50 µM | Not Active | 16.3% |  | 20 µM | Not Active |  |  |  |  | Bld
N=C(N)Nc1ccc(CNC(=O)[C@@H](NC(=O)c2ccc(-c3ccc(Cl)cc3)cc2)c2ccc(OCc3ccccc3)cc2)cc1.O=C(O)C(F)(F)F | 2 µM | 98.7% | 99.9% | 79.9% | 3.7 µM | > 50 µM | Not Active | 56.6% | Non-Toxic | 7.1 µM | Not Active |  |  |  |  | 
